Test results from patent US9249129B2, “Morpholino substituted urea derivatives as mTOR inhibitors” (CELLZOME LIMITED, priority 2010, dated 2016).
Where two headings read alike, the source gives them in different places.

Experiments:
PI3K delta (PI3Kd) = molecular target: T1, PI3K delta (PI3Kd) (Homo sapiens, UniProt O00329); assay: kinobeads assay, PI3K delta (dot blot detection); format: binding
T1 construct: endogenous in cells; host or cells: Jurkat cells (ATCC TIB-152, clone E6-1), lysate
Procedure: (§1) The compounds of the present invention as described were tested in the mTOR kinobeads assay as described below. Briefly, test compounds (at various concentrations) and the affinity matrix (1:1 mixture of beads with immobilized phenylthiazole ligand 1 and beads with immobilized phenylmorpholin-chromen ligand; WO 2009/098021) were added to cell lysate aliquots and allowed to bind to the proteins in the lysate sample. After the incubation time the beads with captured proteins were separated from the lysate. Bound proteins were then eluted and the presence of mTOR, PI3K delta (PI3 Kd) and DNA-dependent protein kinase (DNA-PK) was detected and quantified using a specific antibody in a dot blot procedure and the Odyssey infrared detection system. Dose response curves for individual kinases were generated and IC50 values calculated. Kinobeads assays for PI3 kinases (WO-A 2008/015013) and for kinase selectivity profiling (WO 2009/098021) have been previously described.
(§2) The affinity matrix (beads with immobilized phenylmorpholin-chromen ligand) was washed two times with 15 ml of 1×DP buffer containing 0.2% NP40 (IGEPAL® CA-630, Sigma, #13021) and then resupended in 5.5 ml of 1×DP buffer containing 0.2% NP40 (10% beads slurry).
(§3) 5×DP buffer: 250 mM Tris-HCl pH 7.4, 25% Glycerol, 7.5 mM MgCl2, 750 mM NaCl, 5 mM Na3VO4, filter the 5×-lysis buffer through 0.22 μm filter and store in aliquots at −80° C. The 5×DP buffer is diluted to 1×DP buffer containing 1 mM DTT and 25 mM NaF.
(§4) Stock solutions of test compounds were prepared in DMSO. In a 96 well plate 30 μl solution of diluted test compounds at 5 mM in DMSO were prepared. Starting with this solution a 1:3 dilution series (9 steps) was prepared. For control experiments (no test compound) a buffer containing 2% DMSO was used. Compound CZC00018052 served as a positive control (PI-103; Calbiochem catalogue number 528100).
(§5) Jurkat cells (ATCC catalogue number TIB-152 Jurkat, clone E6-1) were grown in 1 litre Spinner flasks (Integra Biosciences, #182101) in suspension in RPMI 1640 medium (Invitrogen, #21875-034) supplemented with 10% Fetal Bovine Serum (Invitrogen) at a density between 0.15×10^6 and 1.2×10^6 cells/ml. Cells were harvested by centrifugation, washed once with 1×PBS buffer (Invitrogen, #14190-094) and cell pellets were frozen in liquid nitrogen and subsequently stored at −80° C.
(§6) Jurkat cells were homogenized in a Potter S homogenizer in lysis buffer: 50 mM Tris-HCl, 0.8% NP40, 5% glycerol, 150 mM NaCl, 1.5 mM MgCl2, 25 mM NaF, 1 mM sodium vanadate, 1 mM DTT, pH 7.5. One complete EDTA-free tablet (protease inhibitor cocktail, Roche Diagnostics, 1873580) per 25 ml buffer was added. The material was dounced 10 times using a mechanized POTTER S, transferred to 50 ml falcon tubes, incubated for 30 minutes on ice and spun down for 10 min at 20,000 g at 4° C. (10,000 rpm in Sorvall SLA600, precooled). The supernatant was transferred to an ultracentrifuge (UZ)-polycarbonate tube (Beckmann, 355654) and spun for 1 hour at 100.000 g at 4° C. (33.500 rpm in Ti50.2, precooled). The supernatant was transferred again to a fresh 50 ml falcon tube, the protein concentration was determined by a Bradford assay (BioRad) and samples containing 50 mg of protein per aliquot were prepared. The samples were immediately used for experiments or frozen in liquid nitrogen and stored frozen at −80° C.
(§7) Jurkat cell lysate (approximately 50 mg protein per plate) was thawed in a water bath at room temperature and then kept on ice. To the thawed cell lysate 1×DP 0.8% NP40 buffer containing protease inhibitors (1 tablet for 25 ml buffer; EDTA-free protease inhibitor cocktail; Roche Diagnostics 1873580) was added in order to reach a final protein concentration of 5 mg/ml total protein. The diluted cell lysate was stored on ice. […]

PI3Kγ = molecular target: T2, PI3Kγ (Homo sapiens, UniProt P48736); assay: kinobeads assay, PI3K gamma (dot blot detection); format: binding; details: Table 4, read-out: Inhibition values (IC50) PI3Kg
T2 construct: endogenous in cells; host or cells: Jurkat cells (ATCC TIB-152) lysate, the only lysate described

[1] = system: S6RP serine-240/244 phosphorylation in HEK293T/17 cells; assay: In vitro phospho-S6 cellular assay (pS6RP S240/244); format: cell-based; details: Homo sapiens, Table 6, 2 hours, S6RP Ser240/244, read-out: pS6 (phospho-S6 cell assay data, activity level)
Description: In Vitro Phospho-S6 and Phospho-Akt Cellular Assay
Activation of mTOR signaling results in phosphorylation of several downstream targets. In cells, mTOR exists in two different protein complexes. The mTOR Complex-1 (mTORC1) phosphorylates and activates S6 Kinase 1 (S6K1) and S6 Kinase 2 (S6K2) (also known as p70S6K) which then phosphorylate S6 Ribosomal Protein (S6RP) (also known as RPS6). S6RP is phosphorylated on serine 235, serine 236, serine 240 and serine 244 by both pS6K1 and pS6K2. The mTOR Complex-2 (mTORC2) phosphorylates AKT on serine 473 which activates the AKT signaling pathway.
The assay measures a test compound's inhibition of S6RP serine-240/244 phosphorylation and inhibition of Akt serine-473 phosphorylation in human embryonic kidney derived HEK293T/17 cells (ATCC CRL-11268).
The HEK293T/17 cell line is maintained in DMEM media (Invitrogen catalogue number 41965-039) supplemented with 10% FCS at 37° C. in a 5% CO2 humidified incubator.
Cells are seeded in 96-well plates at 40,000 cells/well (pS6RP S240/244 assay) or 80,000 cells/well (pAkt 5473 assay) in 90 μl growth media (DMEM, 2% FCS). Plates are incubated for 1 hour in a humidified incubator to allow the cells to adhere. Cells are treated with 8 concentrations of test compounds or DMSO alone for controls (final DMSO concentration 0.1%) and incubated at 37° C. for 2 hours. Then 20 μl of 5× concentrated lysis buffer (750 mM NaCl, 100 mM Tris pH7.4, 5 mM EDTA, 5 mM EGTA, 5% Triton X-100) is added, plates are sealed and incubated for 15 minutes at 4° C. with gentle shaking. After cell lysis, 25 μl cell lysate is transferred to a MesoScale plate coated with an antibody to pS6RP Ser240/244 (MesoScale Discovery K150DGD-3) or an antibody to pAkt Ser 473 (MesoScale Discovery K151DGD-3). Plates have been blocked before by incubation with 150 μl MesoScale Discovery Blocking Solution-A for 1 hour at room temperature followed by washing with 150 μl 1× Tris wash buffer per well. After the transfer of the cell lysate to the MSD plate, the pS6RP (or pAkt) protein is captured on the coated antibody by incubation at room temperature for 1 hour with gentle shaking. After the capture step the plate is washed three times with 150 μl of 1× Tris wash buffer per well. Then 25 μl detection antibody conjugated with a Sulfo-Tag is added and incubated for 1 hour at room temperature with gentle shaking. Subsequently the antibody solution is removed and the plate is washed 3 times with 150 μl 1× Tris wash buffer per well and 150 μl Read buffer is added. The plates are analysed on a MSD 2400 Plate Reader (MesoScale Discovery). Data analysis is performed using nonlinear regression for a sigmoidal dose-response with a variable slope.

mTOR = molecular target: T3, mTOR (Homo sapiens, UniProt P42345); assay: mTOR kinobeads assay (dot blot detection); format: binding
T3 construct: endogenous in cells; host or cells: Jurkat cells (ATCC TIB-152, clone E6-1), lysate
Procedure: as §1, §2, §3, §4, §5, §6, §7

PI3Kβ = molecular target: T4, PI3Kβ (Homo sapiens, UniProt P42338); assay: kinobeads assay, PI3K beta (dot blot detection); format: binding; details: Table 4, read-out: Inhibition values (IC50) PI3Kb
T4 construct: endogenous in cells; host or cells: Jurkat cells (ATCC TIB-152) lysate, the only lysate described

[2] = molecular target: T5, DNA-dependent protein kinase (DNA-PK) (Homo sapiens, UniProt P78527); assay: kinobeads assay, DNA-PK (dot blot detection); format: binding
T5 construct: endogenous in cells; host or cells: Jurkat cells (ATCC TIB-152, clone E6-1), lysate
Procedure: as §1, §2, §3, §4, §5, §6, §7

PI3Kα = molecular target: T6, PI3Kα (Homo sapiens, UniProt P42336); assay: kinobeads assay, PI3K alpha (dot blot detection); format: binding; details: Table 4, read-out: Inhibition values (IC50) PI3Ka
T6 construct: endogenous in cells; host or cells: Jurkat cells (ATCC TIB-152) lysate, the only lysate described

[3] = Table 2, Jurkat cell lysate, read-out: Inhibition values (IC50) PI3Kd
[4] = Table 4, read-out: Inhibition values (IC50) PI3Kd
[5] = Table 2, Jurkat cell lysate, read-out: Inhibition values (IC50) mTor
[6] = Table 4, read-out: Inhibition values (IC50) mTOR
[7] = Table 2, Jurkat cell lysate, read-out: Inhibition values (IC50) DNAPK
[8] = Table 4, read-out: Inhibition values (IC50) DNAPK

T5 sequence (P78527 whole entry): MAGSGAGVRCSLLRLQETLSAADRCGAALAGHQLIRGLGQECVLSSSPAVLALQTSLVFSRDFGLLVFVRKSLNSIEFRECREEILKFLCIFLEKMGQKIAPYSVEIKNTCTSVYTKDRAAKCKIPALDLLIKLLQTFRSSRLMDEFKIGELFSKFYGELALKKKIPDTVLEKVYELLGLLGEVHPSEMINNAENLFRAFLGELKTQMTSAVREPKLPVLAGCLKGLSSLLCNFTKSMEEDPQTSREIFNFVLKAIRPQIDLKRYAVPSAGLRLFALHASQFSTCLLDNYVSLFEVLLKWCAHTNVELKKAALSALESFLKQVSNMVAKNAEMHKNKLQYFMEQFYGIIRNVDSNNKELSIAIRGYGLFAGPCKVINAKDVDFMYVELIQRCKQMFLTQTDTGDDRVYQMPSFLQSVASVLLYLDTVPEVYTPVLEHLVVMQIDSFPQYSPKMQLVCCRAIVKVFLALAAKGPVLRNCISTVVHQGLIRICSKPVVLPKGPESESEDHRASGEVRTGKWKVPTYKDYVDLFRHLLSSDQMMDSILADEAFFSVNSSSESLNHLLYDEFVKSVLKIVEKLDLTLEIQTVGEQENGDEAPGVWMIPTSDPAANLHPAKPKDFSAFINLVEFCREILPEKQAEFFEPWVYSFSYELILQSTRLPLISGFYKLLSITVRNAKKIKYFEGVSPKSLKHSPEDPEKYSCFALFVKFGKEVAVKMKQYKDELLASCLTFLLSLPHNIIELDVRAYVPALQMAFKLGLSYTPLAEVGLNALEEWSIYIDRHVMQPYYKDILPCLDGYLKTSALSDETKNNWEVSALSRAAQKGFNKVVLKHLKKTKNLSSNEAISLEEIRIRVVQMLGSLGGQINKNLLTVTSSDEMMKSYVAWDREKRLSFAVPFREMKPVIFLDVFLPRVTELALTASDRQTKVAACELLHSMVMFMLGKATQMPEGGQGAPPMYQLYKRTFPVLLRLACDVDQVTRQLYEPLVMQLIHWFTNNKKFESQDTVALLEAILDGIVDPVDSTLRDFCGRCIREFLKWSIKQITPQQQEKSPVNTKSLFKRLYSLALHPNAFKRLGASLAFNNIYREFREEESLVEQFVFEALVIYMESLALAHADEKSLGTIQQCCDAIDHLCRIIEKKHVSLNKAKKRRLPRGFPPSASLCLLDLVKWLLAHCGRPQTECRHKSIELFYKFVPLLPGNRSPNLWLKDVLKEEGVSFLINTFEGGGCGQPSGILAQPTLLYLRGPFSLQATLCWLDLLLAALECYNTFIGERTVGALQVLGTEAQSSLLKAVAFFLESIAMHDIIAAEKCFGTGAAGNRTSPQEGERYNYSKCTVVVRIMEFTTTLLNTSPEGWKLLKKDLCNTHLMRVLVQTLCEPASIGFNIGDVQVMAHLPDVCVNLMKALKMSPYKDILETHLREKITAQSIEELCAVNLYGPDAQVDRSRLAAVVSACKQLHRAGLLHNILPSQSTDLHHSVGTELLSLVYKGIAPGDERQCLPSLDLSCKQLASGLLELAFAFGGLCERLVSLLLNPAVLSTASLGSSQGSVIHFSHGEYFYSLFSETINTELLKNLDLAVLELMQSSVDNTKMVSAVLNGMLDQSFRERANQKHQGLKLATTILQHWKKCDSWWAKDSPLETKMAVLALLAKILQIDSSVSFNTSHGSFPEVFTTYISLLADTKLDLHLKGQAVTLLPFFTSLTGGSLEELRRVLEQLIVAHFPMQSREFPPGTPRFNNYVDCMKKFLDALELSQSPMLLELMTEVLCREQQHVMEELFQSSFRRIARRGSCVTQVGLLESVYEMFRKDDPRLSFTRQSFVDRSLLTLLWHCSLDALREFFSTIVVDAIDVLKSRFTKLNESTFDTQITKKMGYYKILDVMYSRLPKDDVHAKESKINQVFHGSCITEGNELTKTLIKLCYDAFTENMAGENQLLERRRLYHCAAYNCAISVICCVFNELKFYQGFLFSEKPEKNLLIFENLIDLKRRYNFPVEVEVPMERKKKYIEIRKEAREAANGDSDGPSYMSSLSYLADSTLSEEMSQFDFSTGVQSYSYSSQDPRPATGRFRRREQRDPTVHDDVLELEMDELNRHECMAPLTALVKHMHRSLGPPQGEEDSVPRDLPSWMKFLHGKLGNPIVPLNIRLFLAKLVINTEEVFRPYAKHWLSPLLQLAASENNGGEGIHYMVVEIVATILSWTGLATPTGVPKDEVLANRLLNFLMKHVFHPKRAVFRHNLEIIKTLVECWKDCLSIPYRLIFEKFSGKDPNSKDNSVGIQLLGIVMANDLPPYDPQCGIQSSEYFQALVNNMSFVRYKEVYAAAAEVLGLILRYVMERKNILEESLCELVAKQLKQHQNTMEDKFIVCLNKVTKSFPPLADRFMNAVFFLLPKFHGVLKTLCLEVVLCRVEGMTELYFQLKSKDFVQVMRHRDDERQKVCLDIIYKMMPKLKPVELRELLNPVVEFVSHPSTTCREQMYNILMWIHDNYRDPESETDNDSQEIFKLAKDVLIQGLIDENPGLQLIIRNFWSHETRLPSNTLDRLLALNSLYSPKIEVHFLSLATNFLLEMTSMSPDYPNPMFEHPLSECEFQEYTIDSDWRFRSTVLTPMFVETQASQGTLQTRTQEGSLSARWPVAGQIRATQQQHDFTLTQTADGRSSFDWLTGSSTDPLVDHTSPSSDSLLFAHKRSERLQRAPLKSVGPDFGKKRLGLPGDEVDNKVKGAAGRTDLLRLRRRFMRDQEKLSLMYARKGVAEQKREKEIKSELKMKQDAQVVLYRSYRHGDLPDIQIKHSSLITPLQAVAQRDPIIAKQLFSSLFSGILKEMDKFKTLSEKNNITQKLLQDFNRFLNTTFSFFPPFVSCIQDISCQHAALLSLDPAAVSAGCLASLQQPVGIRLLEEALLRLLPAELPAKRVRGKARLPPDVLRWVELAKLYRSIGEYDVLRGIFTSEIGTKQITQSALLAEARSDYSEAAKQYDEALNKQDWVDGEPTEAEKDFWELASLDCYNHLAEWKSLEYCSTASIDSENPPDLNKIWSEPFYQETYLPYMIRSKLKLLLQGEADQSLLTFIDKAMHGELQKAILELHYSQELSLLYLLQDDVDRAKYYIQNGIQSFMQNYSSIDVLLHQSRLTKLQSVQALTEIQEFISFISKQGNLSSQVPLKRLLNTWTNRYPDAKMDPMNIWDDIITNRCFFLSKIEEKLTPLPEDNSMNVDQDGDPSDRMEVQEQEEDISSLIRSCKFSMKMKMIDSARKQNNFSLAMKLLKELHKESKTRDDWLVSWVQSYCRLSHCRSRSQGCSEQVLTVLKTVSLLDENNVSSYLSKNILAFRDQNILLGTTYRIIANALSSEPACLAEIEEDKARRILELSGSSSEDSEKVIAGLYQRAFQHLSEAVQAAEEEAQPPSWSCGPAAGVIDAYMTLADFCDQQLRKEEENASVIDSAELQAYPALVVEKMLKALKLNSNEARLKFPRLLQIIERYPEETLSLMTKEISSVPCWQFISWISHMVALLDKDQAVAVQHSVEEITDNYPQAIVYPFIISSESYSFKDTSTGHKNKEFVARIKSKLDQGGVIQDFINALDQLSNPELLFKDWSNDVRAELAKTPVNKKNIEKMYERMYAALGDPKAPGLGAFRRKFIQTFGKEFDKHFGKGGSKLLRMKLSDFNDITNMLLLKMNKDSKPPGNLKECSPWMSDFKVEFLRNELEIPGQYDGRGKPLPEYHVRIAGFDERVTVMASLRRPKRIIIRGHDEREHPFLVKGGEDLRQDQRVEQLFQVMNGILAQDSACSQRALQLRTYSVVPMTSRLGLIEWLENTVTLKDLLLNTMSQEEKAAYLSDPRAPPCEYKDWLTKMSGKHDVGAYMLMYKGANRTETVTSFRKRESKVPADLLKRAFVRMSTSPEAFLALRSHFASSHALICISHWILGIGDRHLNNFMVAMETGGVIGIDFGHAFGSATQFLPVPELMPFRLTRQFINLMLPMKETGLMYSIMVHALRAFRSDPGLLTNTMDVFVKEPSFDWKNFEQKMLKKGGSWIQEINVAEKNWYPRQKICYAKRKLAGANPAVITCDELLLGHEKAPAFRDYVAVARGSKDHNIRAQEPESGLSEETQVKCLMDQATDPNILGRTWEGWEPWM

Structure (SMILES) | IC50 (PI3K delta (PI3Kd); [3]) | IC50 (PI3K delta (PI3Kd); [4]) | IC50 (PI3Kγ) | IC50 (mTOR; [5]) | IC50 (mTOR; [6]) | IC50 (PI3Kβ) | IC50 [2, 7] | IC50 [2, 8] | IC50 (PI3Kα) | IC50 [1]
CCNC(=O)Nc1ccc(-c2ccnc(N3CC4CCC(C3)O4)n2)cc1 [Example 56, 1-(4-(2-(8-oxa-3-azabicyclo[3.2.1]octan-3-yl)pyrimidin-4-yl)phenyl)-3-ethylurea] | ≥ 10 µM | ≥ 10 µM | ≥ 10 µM | 1 to 10 µM | 1 to 10 µM | ≥ 10 µM | ≥ 10 µM | ≥ 10 µM | ≥ 10 µM | 0.1 to 1 µM
C[C@H]1COCCN1c1cc(-c2cncc(F)c2)nc(-c2ccc(NC(=O)NC3CC3)cc2F)n1 [Example 63, (S)-1-cyclopropyl-3-(3-fluoro-4-(4-(5-fluoropyridin-3-yl)-6-(3-methylmorpholino)pyrimidin-2-yl)phenyl)urea] | ≥ 10 µM | ≥ 10 µM | ≥ 10 µM | 1 to 10 µM | 1 to 10 µM | ≥ 10 µM | ≥ 10 µM | ≥ 10 µM | ≥ 10 µM | 0.1 to 1 µM
O=C(NCCO)Nc1ccc(-c2ccnc(N3CC4CCC(C3)O4)n2)cc1 [Example 59, 1-(4-(2-(8-oxa-3-azabicyclo[3.2.1]octan-3-yl)pyrimidin-4-yl)phenyl)-3-(2-hydroxyethyl)urea] | ≥ 10 µM | ≥ 10 µM | ≥ 10 µM | 1 to 10 µM | 1 to 10 µM | ≥ 10 µM | ≥ 10 µM | ≥ 10 µM | ≥ 10 µM | 0.1 to 1 µM
C[C@H]1COCCN1c1nc(-c2ccc(NC(=O)NC3CC3)cc2)cc(-c2cccnc2[S+](C)[O-])n1 (stereo partly drawn) [Example 45, 1-cyclopropyl-3-(4-(2-((S)-3-methylmorpholino)-6-(2-(methylsulfinyl)pyridin-3-yl)pyrimidin-4-yl)phenyl)urea] | 1 to 10 µM | 1 to 10 µM | ≥ 10 µM | < 0.1 µM | < 0.1 µM | 1 to 10 µM | ≥ 10 µM | ≥ 10 µM | 1 to 10 µM | 0.1 to 1 µM
C[C@H]1COCCN1c1ccnc(-c2ccc(NC(=O)NCC(F)F)cc2)n1 [Example 54, (S)-1-(2,2-difluoroethyl)-3-(4-(4-(3-methylmorpholino)pyrimidin-2-yl)phenyl)urea] | ≥ 10 µM | ≥ 10 µM | ≥ 10 µM | 0.1 to 1 µM | 0.1 to 1 µM | ≥ 10 µM | ≥ 10 µM | ≥ 10 µM | ≥ 10 µM | 0.1 to 1 µM

Further lines, with some results ahead:

IC50 (PI3K delta (PI3Kd); [3]) | IC50 (PI3K delta (PI3Kd); [4]) | IC50 (PI3Kγ) | IC50 (mTOR; [5]) | IC50 (mTOR; [6]) | IC50 (PI3Kβ) | IC50 [2, 7] | IC50 [2, 8] | IC50 (PI3Kα) | Structure (SMILES) | IC50 [1]
≥ 10 µM | ≥ 10 µM | ≥ 10 µM | 0.1 to 1 µM | 0.1 to 1 µM | ≥ 10 µM | ≥ 10 µM | ≥ 10 µM | ≥ 10 µM | CCNC(=O)Nc1ccc(-c2cc(-c3ccccc3S(=O)(=O)N(C)C)nc(N3CCOC[C@@H]3C)n2)cc1 [Example 14, (S)-2-(6-(4-(3-ethylureido)phenyl)-2-(3-methylmorpholino)pyrimidin-4-yl)-N,N-dimethylbenzenesulfonamide] | 0.1 to 1 µM
 | ≥ 10 µM | ≥ 10 µM |  | 0.1 to 1 µM | ≥ 10 µM |  | ≥ 10 µM | ≥ 10 µM | CS(=O)(=O)c1ccc(F)cc1-c1cc(-c2ccc(NC(=O)NC3CC3)cc2)nc(N2CC3CCC(C2)O3)n1 [Example 81, 1-(4-(2-(8-oxa-3-azabicyclo[3.2.1]octan-3-yl)-6-(5-fluoro-2-(methylsulfonyl)phenyl)pyrimidin-4-yl)phenyl)-3-cyclopropylurea] | < 0.1 µM
≥ 10 µM | ≥ 10 µM | ≥ 10 µM | 0.1 to 1 µM | 0.1 to 1 µM | ≥ 10 µM | ≥ 10 µM | ≥ 10 µM | ≥ 10 µM | CC(O)CNC(=O)Nc1ccc(-c2cc(-c3cc(F)ccc3S(C)(=O)=O)nc(N3CCOC[C@@H]3C)n2)cc1 (stereo partly drawn) [Example 71, 1-(4-(6-(5-fluoro-2-(methylsulfonyl)phenyl)-2-((S)-3-methylmorpholino)pyrimidin-4-yl)phenyl)-3-(2-hydroxypropyl)urea] | < 0.1 µM
